From the NIST ThermoML archive (doi:10.1016/j.tca.2019.05.008)

Experiments:
[1] = Fast Scanning Calorimeter Method
[2] = molar heat capacity at constant pressure; details: 101.33 kPa, Crystal, DSC

Cn1c(=O)c2c(ncn2C)n(C)c1=O [caffeine]
[1], Crystal 1
Details	vapor or sublimation pressure [kPa]
394.7 K	0.0031
398.4 K	0.0035
399.8 K	0.0039
404.1 K	0.0067
408.2 K	0.0092
409.7 K	0.0099
413.5 K	0.0116
417.9 K	0.0158
419.5 K	0.019
422.8 K	0.023
427.7 K	0.0336
429.4 K	0.0376
432.2 K	0.0467
437.4 K	0.0651
439.3 K	0.0736
441.6 K	0.0874
447.2 K	0.1252
449.1 K	0.1611
451 K	0.1622
457 K	0.2346
459 K	0.2609
460.4 K	0.2914
466.7 K	0.4121
468.9 K	0.4821
469.8 K	0.4864
476.5 K	0.7169
478.7 K	0.8343
479.2 K	0.9112
486.2 K	1.078
488.6 K	1.415

Cn1c(=O)c2[nH]cnc2n(C)c1=O [3,7-dihydro-1,3-dimethyl-1H-purine-2,6-dione]
[1], Crystal
Details	vapor or sublimation pressure [kPa]
441.6 K	0.0028
447.2 K	0.0033
449.1 K	0.0047
451 K	0.0061
457 K	0.0072
459 K	0.0108
460.4 K	0.0109
466.7 K	0.0133
468.9 K	0.0192
469.8 K	0.021
476.5 K	0.0261
478.7 K	0.0365
479.2 K	0.0409
486.2 K	0.0532
496 K	0.1094
498 K	0.1408
498.5 K	0.1485
505.7 K	0.1888
507.4 K	0.2298
508.3 K	0.2823
515.5 K	0.3649
516.8 K	0.3867
518.2 K	0.4909
525.2 K	0.563
526.2 K	0.8232
528.1 K	0.8994
535 K	1.001
537.9 K	1.619

[2]
Details	molar heat capacity at constant pressure [J/K/mol]
230 K	159.6
240 K	164.8
250 K	170
260 K	175.1
270 K	180.2
280 K	185.3
290 K	190.3
300 K	195.4
310 K	200.4
320 K	205.3
330 K	210.3
340 K	215.2
350 K	220.1
360 K	224.9
370 K	229.7
380 K	234.5
390 K	239.3
400 K	244
410 K	248.7
420 K	253.4

O=C1c2ccccc2C(=O)c2ccccc21 [9,10(9H,10H)-anthracenedione]
[1], Crystal
Details	vapor or sublimation pressure [kPa]
422.8 K	0.0135
427.7 K	0.0152
429.2 K	0.0165
432.2 K	0.0209
437.4 K	0.0345
439.1 K	0.0354
441.6 K	0.0381
447.2 K	0.0511
448.9 K	0.0693
451 K	0.0839
457 K	0.1042
458.8 K	0.148
460.4 K	0.1696
466.7 K	0.1977
468.7 K	0.2749
469.8 K	0.2497
476.5 K	0.3235
478.5 K	0.487

[2]
Details	molar heat capacity at constant pressure [J/K/mol]
230 K	182.5
240 K	188.9
250 K	195.4
260 K	201.9
270 K	208.3
280 K	214.8
290 K	221.3
300 K	227.8
310 K	234.3
320 K	240.8
330 K	247.3
340 K	253.8
350 K	260.4
360 K	266.9
370 K	273.5
380 K	280
390 K	286.6
400 K	293.2
410 K	299.8
420 K	306.4
